According to US4711883A, “Substituted 3-(4-phenyl-1-piperazinyl)alkylquinazolin-2,4-(1H,3H) diones, methods of preparation, compositions and method of use” (Ortho Pharmaceutical Corporation, priority 1985, dated 1987):
Counter-ions that a name gives are not always drawn. Like-named read-outs stand apart in the source and are kept apart here.

How the values were obtained:
[1] = tested on: spontaneously hypertensive rats (SHR); assay: antihypertensive evaluation, systolic blood pressure, single oral dose, conscious SHR (tail cuff); type: in vivo
Experimental: (§1) The percent recovery is calculated by dividing the maximum decrease in mean arterial blood pressure (mm Hg) caused by tilt into the amount of rise in blood pressure at 15 seconds after initiating tilt. The antihypertensive as well as teh alpha1 -adrenergic blocking properties of the novel quinazolinedione piperazines were evaluated and set forth in Table 2.
The antihypertensive evaluation followed the following procedure:
Adult male spontaneously hypertensive rats (SHR) were placed in restrainers in a chamber warmed to 32° C. A standard indirect method employing a pneumatic pulse transducer and inflatable tail cuff was used to measure systolic blood pressure (SBP) in the conscious state. After baseline SBP were recorded, groups of 4 SHR received a single oral dose of drug or vehicle (0.5% methylcellulose) administered with a gavage tube. SBP's were obtained at 1/2, 1, 2, 3 and 4 hours post treatment. Changes in SBP's were statistically compared to the vehicle effect using Students t test, at p ε0.05.

α1 -adrenergic = α1 -adrenergic blockade: inhibition of phenylephrine-induced increases in diastolic blood pressure in the anesthetized dog; type: in vivo; settings: for Percent Inhibition of Phenylephrin-Induced Pressor Responses: dog
Experimental: The α1 -adrenergic blockade: inhibition of phenylephrine-inducedincreases in diastolic blood pressure in the anesthetized dog was determined according to the method set forth in the following literature reference:
Arunlakshana, O, and Schild, H. O. (1959). Some Quantitative Uses of Drug Antagonists. Br. J. Pharmac. Chemother., 14:48-58.
The procedure is as follows:
Dogs are anesthetized and bilaterally vagotomized. A femoral artery and vein are cannulated for detection of diastolic blood pressure and drug administration, respectively. Percent inhibition of alpha adrenergic receptor antagonism is quantitiated by determining the dose-response (increase in diastolic pressure) relationship of phenylephrine before and after various doses of the antagonist. Statistical analysis of percent inhibition is calculated by use of the variance component estimation test. In addition, the Dose Ratio (DR20) may be calculated for potency comparisons and is defined as the dose of antagonist required to produce an agonist dose ratio of 20.

[2] = tested on: tilt reflex recovery response; design: species or system mongrel dogs; settings: dog, in vivo
Experimental: as §1, with “The tilt reflex recovery response is determined as follows: Adult mongrel dogs of either sex are anesthetized with pentobarbital sodium, secured to a tilt table and surgically prepared for measurement of blood pressure and heart rate. Animals are tilted and the percent recovery of the tilt response in the blood pressure is quantitated. The percent” for “The percent”

[3] = bioavailability comparison, MABP in conscious cannulated SHR (i.v. and oral); type: in vivo, spontaneously hypertensive rats (SHR); settings: rat, in vivo; SHR; small numbers (close to unity) indicate good bioavailability; read-out: Ratio P.O./I.V. (bioavailability ratio)
Experimental: (§2) The bioavailability comparison was determined in conscious direct cannulated spontaneously hypertensive rats. Briefly, the SHRs were anesthetized with ether and a carotid arterial catheter was inserted for measurement of arterial blood pressure while a jugular catheter was inserted for i.v. drug administration. For oral dosing, a catheter was also passed via the esophagus into the stomach. All catheters were exteriorized at the nape of the neck and animals were placed in restrainers and allowed to recover from surgery. Blood pressure was continuously recorded. Drugs were dissolved in 5% dextrose in water and administered as a bolus at time zero. Bioavailability results are presented in Table 3. | (a) I.V. bolus dose that lowers MABP in conscious SHR by 10%. | (b) Oral gavage dose that lowers MABP in conscious cannulated SHR by 10%. | (c) Bioavailability ratio with small numbers (close to unity) indicating | good bioavailability.

[4] = tested on: spontaneously hypertensive rats; assay: as above; type: in vivo, spontaneously hypertensive rats (SHR); settings: for ED10: Rattus norvegicus
Experimental: as §2

histamine = assay: autonomic tests: histamine blood pressure responses; type: in vivo; settings: dogs
acetylcholine = assay: autonomic tests: acetylcholine blood pressure responses; type: in vivo; settings: dogs
[5] = iv, conscious SHR, I.V. bolus, read-out: I.V. E.D.-10% (I.V. bolus dose that lowers MABP by 10%)
[6] = conscious cannulated SHR, oral gavage, read-out: P.O. E.D.-10% (oral gavage dose that lowers MABP by 10%)

Row | Compound | Peak Change in Systolic Blood Pressure ([1]; 0.1 mg/kg PO) [mm Hg] | inhibition of the tilt reflex recovery response [2] | selectivity ratio [3] | ED10 [4, 5] [mg/kg] | ED10 [4, 6] [mg/kg] | antihistaminic effect (inhibition of histamine blood pressure responses) (histamine) | anticholinergic effect (inhibition of acetylcholine blood pressure responses) (acetylcholine) | Peak Change in Systolic Blood Pressure ([1]; 0.5 mg/kg PO) [mm Hg] | other results
1 | COc1ccccc1N1CCN(CCn2c(=O)[nH]c3ccccc3c2=O)CC1 [Compound Z, reference compound] | -40 | 83%±8 | 740 | 0.5 | 370 | inhibits histamine and acetylcholine blood pressure responses | inhibits histamine and acetylcholine blood pressure responses | – | Percent Inhibition of Phenylephrin-Induced Pressor Responses (α1 -adrenergic; 0.010 mg/kg IV): 100%
2 | COc1ccc(N2CCN(CCn3c(=O)[nH]c4ccc(OC)c(OC)c4c3=O)CC2)cc1 [E] | – | – | – | – | – | – | – | – | Peak Change in Systolic Blood Pressure ([1]; 20 mg/kg PO): -50 mm Hg; Percent Inhibition of Phenylephrin-Induced Pressor Responses (α1 -adrenergic; 1.0 mg/kg IV): 80%
3 | Br.COc1ccccc1N1CCN(CCn2c(=O)[nH]c3ccc(O)c(O)c3c2=O)CC1.O [D, 5,6-Dihydroxy-3-{2-[4-(2-methoxyphenyl)-1-piperazinyl]ethyl}-quinazolin-2,4(1H,3H)-dione monohydrobromide monohydrate] | -60 | – | – | – | – | – | – | – | Peak Change in Systolic Blood Pressure ([1]; 0.05 mg/kg PO): -58 mm Hg; Percent Inhibition of Phenylephrin-Induced Pressor Responses (α1 -adrenergic; 0.0303 mg/kg IV): 89%
4 | COc1ccccc1N1CCN(CCn2c(=O)[nH]c3ccc(OC)c(OC)c3c2=O)CC1 [Compound A, 3-{2-[4-(2-Methoxyphenyl)-1-piperazinyl]ethyl}-5,6-dimethoxyquinazolin-2,4-(1H,3H)dione monohydrobromide] | -58 | 37%±12 | 38.9 | 1.8 | 70 | almost no antihistaminic or anticholinergic effect | almost no antihistaminic or anticholinergic effect | -85 | oral hypotensive / antihypertensive activity (in words) ([1]; oral): orally effective antihypertensive profile; DR20 (dose of antagonist required to produce an agonist dose ratio of 20) (α1 -adrenergic; anesthetized dog, IV, phenylephrine): 0.0203 mg/kg; Percent Inhibition of Phenylephrin-Induced Pressor Responses (α1 -adrenergic; 0.0203 (DR20) mg/kg IV): 100%; bioavailability profile (in words) ([4]; oral/i.v. ratios compared with prior art): unexpected superior bioavailability
5 | COc1cc2[nH]c(=O)n(CCN3CCN(c4ccccc4OC)CC3)c(=O)c2cc1OC [C, 6,7-dimethoxy-3-{2-[4-(2-methoxyphenyl)-1-piperazinyl]ethyl}-quinazolin-2,4-(1H,3H)dione] | – | – | – | – | – | – | – | -69 | Percent Inhibition of Phenylephrin-Induced Pressor Responses (α1 -adrenergic; 0.1 mg/kg IV): 95%
6 | COc1ccccc1N1CCN(CCn2c(=O)[nH]c3c(Cl)cc(OC)c(OC)c3c2=O)CC1 [B, 8-chloro-3-{2-[4-(2-methoxyphenyl)-1-piperazinyl]ethyl}-5,6-dimethoxyquinazolin-2,4-(1H,3H)-dione] | – | – | – | – | – | – | – | – | Peak Change in Systolic Blood Pressure ([1]; 10 mg/kg PO): -72 mm Hg; Percent Inhibition of Phenylephrin-Induced Pressor Responses (α1 -adrenergic; 0.03 mg/kg IV): 60%; Percent Inhibition of Phenylephrin-Induced Pressor Responses (α1 -adrenergic; 0.2 mg/kg IV): 93%
